Where two headings read alike, the source gives them in different places.
Assays:
[1] = biological target: T1, bradykinin 1 receptor (B1R) of the rat (Rattus norvegicus, UniProt P97583); experiment: Functional investigation on the rat bradykinin 1 receptor (B1R), Ca2+ FLIPR assay in CHO K1 rB1R cells; assay type: cell-based; settings: CHO-K1, B1R antagonism rat, test substance 10 μM, read-out: B1R Ant. r [10 μM] % Inhibition
T1 construct: expressed in transfected cells; host or cells: CHO K1 cells
T1 sequence (P97583 1-337): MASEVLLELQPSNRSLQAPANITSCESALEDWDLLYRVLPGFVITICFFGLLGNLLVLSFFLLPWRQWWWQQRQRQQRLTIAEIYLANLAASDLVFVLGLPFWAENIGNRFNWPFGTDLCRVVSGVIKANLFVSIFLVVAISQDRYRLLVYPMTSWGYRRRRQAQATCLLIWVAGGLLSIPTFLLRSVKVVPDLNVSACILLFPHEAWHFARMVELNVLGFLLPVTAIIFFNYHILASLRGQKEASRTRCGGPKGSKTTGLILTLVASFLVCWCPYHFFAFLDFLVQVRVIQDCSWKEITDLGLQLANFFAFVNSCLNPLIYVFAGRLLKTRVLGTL
Outline: (§1)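 Cells were dye-loaded with Fluo-4 plus probenecid, then test substances added and Ca2+ influx compared with agonist control for % activation. After 10-20 min, EC80 agonist (Lys-Des-Arg9-bradykinin human; Des-Arg9-bradykinin rat) was applied; suppression gave % inhibition and IC50 values.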

human μ opiate receptor = biological target: T2, human μ opiate receptor (Homo sapiens, UniProt P35372); experiment: Affinity for the human μ opiate receptor ([3H]-naloxone displacement, CHO-K1 receptor membrane preparation, SPA); assay type: binding; settings: 1.5 h, Table 3, to be read in the same way as Table 1; test concentration 1 μM; read-out: μ
T2 construct: purchased PerkinElmer Life Sciences, Zaventem, Belgium RB-HOM; host or cells: CHO-K1 cells (membrane preparation)
T2 sequence (P35372 whole entry): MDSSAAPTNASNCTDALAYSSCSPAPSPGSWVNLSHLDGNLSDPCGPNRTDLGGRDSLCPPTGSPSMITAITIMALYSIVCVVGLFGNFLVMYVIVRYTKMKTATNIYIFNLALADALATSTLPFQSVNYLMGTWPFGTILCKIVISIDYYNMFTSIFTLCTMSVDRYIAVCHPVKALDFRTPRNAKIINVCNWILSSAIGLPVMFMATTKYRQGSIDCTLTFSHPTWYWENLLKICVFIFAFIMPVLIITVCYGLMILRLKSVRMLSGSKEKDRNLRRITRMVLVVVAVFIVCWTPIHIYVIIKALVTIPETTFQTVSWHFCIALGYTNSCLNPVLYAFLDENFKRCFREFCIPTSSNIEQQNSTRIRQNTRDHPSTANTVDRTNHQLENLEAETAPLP
Outline: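 Scintillation proximity binding on human μ receptor membranes from CHO-K1 cells used 1 nmol/l [3H]-naloxone over 90 min at room temperature in 50 mmol/l Tris-HCl, 0.06% BSA. Percent inhibition was recorded at 1 μM.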

[2] = biological target: T3, human bradykinin 1 receptor (B1R) (Homo sapiens, UniProt P46663); experiment: Functional investigation on the human bradykinin 1 receptor (B1R), Ca2+ FLIPR assay in CHO K1 hB1R cells; assay type: cell-based; settings: CHO-K1, B1R antagonism human, test substance 10 μM, read-out: B1R Ant. h [10 μM] % Inhibition
T3 construct: expressed in transfected cells; host or cells: CHO K1 cells
T3 sequence (P46663 1-353): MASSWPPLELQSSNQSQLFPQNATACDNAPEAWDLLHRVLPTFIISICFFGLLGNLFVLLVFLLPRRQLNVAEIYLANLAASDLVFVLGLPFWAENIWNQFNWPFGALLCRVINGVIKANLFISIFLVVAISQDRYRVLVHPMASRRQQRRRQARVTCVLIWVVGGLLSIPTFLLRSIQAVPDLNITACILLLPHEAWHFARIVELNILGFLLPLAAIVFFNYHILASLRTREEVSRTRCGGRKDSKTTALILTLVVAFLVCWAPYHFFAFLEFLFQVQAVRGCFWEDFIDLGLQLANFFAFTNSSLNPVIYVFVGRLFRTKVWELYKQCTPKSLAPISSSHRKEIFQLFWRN
Outline: as §1

[3] = % inhibition compared with the maximum achievable inhibition

SMILES: O=C(COC1CCCN(S(=O)(=O)c2c(Cl)cc(Cl)cc2Cl)C1)NCC1CCC(C(CCc2ccccc2)N2CCOCC2)CC1 (stereo not drawn) [Example 747, N-((4-(1-morpholino-3-phenylpropyl)cyclohexyl)methyl)-2-(1-(2,4,6-trichlorophenylsulfonyl)piperidin-3-yloxy)acetamide]
- inhibition at 10 µM ([1]; Ca2+ FLIPR, CHO K1 rB1R cells): 32%
- inhibition at 1 µM (human μ opiate receptor): 23%
- inhibition at 10 µM ([2]; Ca2+ FLIPR, CHO K1 hB1R cells): 24%

SMILES: CN(CCOCC(=O)NC1CCC(C(CCc2ccccc2)N2CCCCC2)CC1)S(=O)(=O)c1ccc(Cl)cc1Cl (stereo not drawn) [Example 661, 2-(2-(2,4-dichloro-N-methylphenylsulfonamido)ethoxy)-N-(4-(3-phenyl-1-(piperidin-1-yl)propyl)cyclohexyl)acetamide]
- inhibition at 10 µM ([1]; Ca2+ FLIPR, CHO K1 rB1R cells): 25%
- inhibition at 1 µM (human μ opiate receptor): 21%
- inhibition at 10 µM ([2]; Ca2+ FLIPR, CHO K1 hB1R cells): 73%

SMILES: COc1cc(C)c(S(=O)(=O)N2CCCC(OCC(=O)NC3CCC(C(CCc4ccccc4)N4CCOCC4)CC3)C2)c(C)c1 (stereo not drawn) [Example 674, 2-(1-(4-methoxy-2,6-dimethylphenylsulfonyl)piperidin-3-yloxy)-N-(4-(1-morpholino-3-phenylpropyl)cyclohexyl)acetamide]
- inhibition at 10 µM ([1]; Ca2+ FLIPR, CHO K1 rB1R cells): 45%
- inhibition at 1 µM (human μ opiate receptor): 7%
- inhibition at 10 µM ([2]; Ca2+ FLIPR, CHO K1 hB1R cells): 61%

SMILES: COc1cc(C)c(S(=O)(=O)N2CCCC(OCC(=O)NC3CCC(C(c4ccccc4)N4CCN(C)CC4)CC3)C2)c(C)c1 (stereo not drawn) [Example 708, 2-(1-(4-methoxy-2,6-dimethylphenylsulfonyl)piperidin-3-yloxy)-N-(4-((4-methylpiperazin-1-yl)(phenyl)methyl)cyclohexyl)acetamide]
- inhibition at 10 µM ([1]; Ca2+ FLIPR, CHO K1 rB1R cells): 91%
- inhibition at 1 µM (human μ opiate receptor): 29%
- inhibition at 10 µM ([2]; Ca2+ FLIPR, CHO K1 hB1R cells): 100%

SMILES: COc1cc(C)c(S(=O)(=O)N2CCCC(COCC(=O)NCC3CCC(C(CCc4ccccc4)N4CCCC4)CC3)C2)c(C)c1 (stereo not drawn) [Example 757, 2-((1-(4-methoxy-2,6-dimethylphenylsulfonyl)piperidin-3-yl)methoxy)-N-((4-(3-phenyl-1-(pyrrolidin-1-yl)propyl)cyclohexyl)methyl)acetamide]
- inhibition at 10 µM ([1]; Ca2+ FLIPR, CHO K1 rB1R cells): 100%
- inhibition at 1 µM (human μ opiate receptor): 32%
- inhibition at 10 µM ([2]; Ca2+ FLIPR, CHO K1 hB1R cells): 103%

SMILES: COc1cc(C)c(S(=O)(=O)N2CCCC2COCC(=O)NCC2CCC(C(CCc3ccccc3)N3CCOCC3)CC2)c(C)c1 (stereo not drawn) [Example 749, 2-((1-(4-methoxy-2,6-dimethylphenylsulfonyl)pyrrolidin-2-yl)methoxy)-N-((4-(1-morpholino-3-phenylpropyl)cyclohexyl)methyl)acetamide]
- inhibition at 10 µM ([1]; Ca2+ FLIPR, CHO K1 rB1R cells): 109%
- inhibition at 1 µM (human μ opiate receptor): 12%
- inhibition at 10 µM ([2]; Ca2+ FLIPR, CHO K1 hB1R cells): 103%

SMILES: O=C(COCC1CCCCN1S(=O)(=O)c1c(Cl)cc(Cl)cc1Cl)NCC1CCC(C(c2ccccc2)N2CCOCC2)CC1 (stereo not drawn) [Example 712, N-((4-(morpholino(phenyl)methyl)cyclohexyl)methyl)-2-((1-(2,4,6-trichlorophenylsulfonyl)piperidin-2-yl)methoxy)acetamide]
- inhibition at 10 µM ([1]; Ca2+ FLIPR, CHO K1 rB1R cells): 100%
- inhibition at 1 µM (human μ opiate receptor): 40%
- inhibition at 10 µM ([2]; Ca2+ FLIPR, CHO K1 hB1R cells): 46%

SMILES: CN(CCOCC(=O)NC1CCC(C(c2ccccc2)N2CCOCC2)CC1)S(=O)(=O)c1c(Cl)cc(C(F)(F)F)cc1Cl (stereo not drawn) [Example 689, 2-(2-(2,6-dichloro-N-methyl-4-(trifluoromethyl)phenylsulfonamido)ethoxy)-N-(4-(morpholino(phenyl)methyl)cyclohexyl)acetamide]
- inhibition at 10 µM ([1]; Ca2+ FLIPR, CHO K1 rB1R cells): 39%
- inhibition at 1 µM (human μ opiate receptor): 6%
- inhibition at 10 µM ([2]; Ca2+ FLIPR, CHO K1 hB1R cells): 22%

SMILES: O=C(COCC1CCCN(S(=O)(=O)c2c(Cl)cc(Cl)cc2Cl)C1)NC1CCC(C(CCc2ccccc2)N2CCCCC2)CC1 (stereo not drawn) [Example 679, N-(4-(3-phenyl-1-(piperidin-1-yl)propyl)cyclohexyl)-2-((1-(2,4,6-trichlorophenylsulfonyl)piperidin-3-yl)methoxy)acetamide]
- inhibition at 10 µM ([1]; Ca2+ FLIPR, CHO K1 rB1R cells): 34%
- inhibition at 1 µM (human μ opiate receptor): 51%
- inhibition at 10 µM ([2]; Ca2+ FLIPR, CHO K1 hB1R cells): 39%

SMILES: COc1cc(C)c(S(=O)(=O)N(C)CCOCC(=O)N2CCC(C(Cc3ccccc3)N3CCN(C)CC3)CC2)c(C)c1 (stereo not drawn) [Example 803, 4-methoxy-N,2,6-trimethyl-N-(2-(2-(4-(1-(4-methylpiperazin-1-yl)-2-phenylethyl)piperidin-1-yl)-2-oxoethoxy)ethyl)benzenesulfonamide]
- inhibition at 10 µM [1, 3]: 99%
- inhibition at 1 µM (human μ opiate receptor): 13%
- inhibition at 10 µM [2, 3]: 108%

SMILES: COc1cc(C)c(S(=O)(=O)N2CCCCC2COCC(=O)NCC2CCC(C(CCc3ccccc3)N3CCCC3)CC2)c(C)c1 (stereo not drawn) [Example 736, 2-((1-(4-methoxy-2,6-dimethylphenylsulfonyl)piperidin-2-yl)methoxy)-N-((4-(3-phenyl-1-(pyrrolidin-1-yl)propyl)cyclohexyl)methyl)acetamide]
- inhibition at 10 µM ([1]; Ca2+ FLIPR, CHO K1 rB1R cells): 102%
- inhibition at 1 µM (human μ opiate receptor): 34%
- inhibition at 10 µM ([2]; Ca2+ FLIPR, CHO K1 hB1R cells): 103%

SMILES: COc1cc(C)c(S(=O)(=O)N2CCC(OCC(=O)NCC3CCC(C(c4ccccc4)N4CCCC4)CC3)C2)c(C)c1 (stereo not drawn) [Example 645, 2-(1-(4-methoxy-2,6-dimethylphenylsulfonyl)pyrrolidin-3-yloxy)-N-((4-(phenyl(pyrrolidin-1-yl)methyl)cyclohexyl)methyl)acetamide]
- inhibition at 10 µM ([1]; Ca2+ FLIPR, CHO K1 rB1R cells): 100%
- inhibition at 1 µM (human μ opiate receptor): 38%
- inhibition at 10 µM ([2]; Ca2+ FLIPR, CHO K1 hB1R cells): 101%

SMILES: COc1cc(C)c(S(=O)(=O)N2CCCC(COCC(=O)NC3CCC(C(c4ccccc4)N4CCN(C)CC4)CC3)C2)c(C)c1 (stereo not drawn) [Example 702, 2-((1-(4-methoxy-2,6-dimethylphenylsulfonyl)piperidin-3-yl)methoxy)-N-(4-((4-methylpiperazin-1-yl)(phenyl)methyl)cyclohexyl)acetamide]
- inhibition at 10 µM ([1]; Ca2+ FLIPR, CHO K1 rB1R cells): 74%
- inhibition at 1 µM (human μ opiate receptor): 19%
- inhibition at 10 µM ([2]; Ca2+ FLIPR, CHO K1 hB1R cells): 70%

SMILES: O=C(COCC1CCCCN1S(=O)(=O)c1c(Cl)cc(Cl)cc1Cl)NC1CCC(C(CCc2ccccc2)N2CCCCC2)CC1 (stereo not drawn) [Example 738, N-(4-(3-phenyl-1-(piperidin-1-yl)propyl)cyclohexyl)-2-((1-(2,4,6-trichlorophenylsulfonyl)piperidin-2-yl)methoxy)acetamide]
- inhibition at 10 µM ([1]; Ca2+ FLIPR, CHO K1 rB1R cells): 62%
- inhibition at 1 µM (human μ opiate receptor): 77%
- inhibition at 10 µM ([2]; Ca2+ FLIPR, CHO K1 hB1R cells): 75%

SMILES: COc1cc(C)c(S(=O)(=O)N2CCCC(COCC(=O)NCC3CCC(C(c4ccccc4)N4CCOCC4)CC3)C2)c(C)c1 (stereo not drawn) [Example 744, 2-((1-(4-methoxy-2,6-dimethylphenylsulfonyl)piperidin-3-yl)methoxy)-N-((4-(morpholino(phenyl)methyl)cyclohexyl)methyl)acetamide]
- inhibition at 10 µM ([1]; Ca2+ FLIPR, CHO K1 rB1R cells): 40%
- inhibition at 1 µM (human μ opiate receptor): 13%
- inhibition at 10 µM ([2]; Ca2+ FLIPR, CHO K1 hB1R cells): 18%

SMILES: COc1cc(C)c(S(=O)(=O)N2CCCC(COCC(=O)NC3CCC(C(CCc4ccccc4)N4CCCCC4)CC3)C2)c(C)c1 (stereo not drawn) [Example 740, 2-((1-(4-methoxy-2,6-dimethylphenylsulfonyl)piperidin-3-yl)methoxy)-N-(4-(3-phenyl-1-(piperidin-1-yl)propyl)cyclohexyl)acetamide]
- inhibition at 10 µM ([1]; Ca2+ FLIPR, CHO K1 rB1R cells): 70%
- inhibition at 1 µM (human μ opiate receptor): 15%
- inhibition at 10 µM ([2]; Ca2+ FLIPR, CHO K1 hB1R cells): 79%

SMILES: CN1CCN(C(c2ccccc2)C2CCC(NC(=O)COC3CCN(S(=O)(=O)c4c(Cl)cc(Cl)cc4Cl)C3)CC2)CC1 (stereo not drawn) [Example 686, N-(4-((4-methylpiperazin-1-yl)(phenyl)methyl)cyclohexyl)-2-(1-(2,4,6-trichlorophenylsulfonyl)pyrrolidin-3-yloxy)acetamide]
- inhibition at 10 µM ([1]; Ca2+ FLIPR, CHO K1 rB1R cells): 29%
- inhibition at 1 µM (human μ opiate receptor): 30%
- inhibition at 10 µM ([2]; Ca2+ FLIPR, CHO K1 hB1R cells): 80%

SMILES: O=C(COCC1CCCN1S(=O)(=O)c1c(Cl)cc(Cl)cc1Cl)NC1CCC(C(c2ccccc2)N2CCCC2)CC1 (stereo not drawn) [Example 650, N-(4-(phenyl(pyrrolidin-1-yl)methyl)cyclohexyl)-2-((1-(2,4,6-trichlorophenylsulfonyl)pyrrolidin-2-yl)methoxy)acetamide]
- inhibition at 10 µM ([1]; Ca2+ FLIPR, CHO K1 rB1R cells): 99%
- inhibition at 1 µM (human μ opiate receptor): 92%
- inhibition at 10 µM ([2]; Ca2+ FLIPR, CHO K1 hB1R cells): 96%
